Assay results published in PMC8991199, “Promiscuity mapping of the S100 protein family using a high-throughput holdup assay” (Scientific Reports, 2022).
“Also recorded” adds a separate entry of the source.

Key:
Format in all cases: binding
S100A4 = S100A4 (Homo sapiens, UniProt P26447); assay: direct fluorescence polarization (FP), S100A4; settings: S100A4, 50 nM labeled foldamer, 20 mM HEPES pH 7.5, 150 mM NaCl, 1 mM CaCl2, 0.5 mM TCEP, 0.01% Tween20, quadratic fit, mean ± SEM, three technical repeats, threshold 1 mM
Chain of S100A4 (P26447 whole entry): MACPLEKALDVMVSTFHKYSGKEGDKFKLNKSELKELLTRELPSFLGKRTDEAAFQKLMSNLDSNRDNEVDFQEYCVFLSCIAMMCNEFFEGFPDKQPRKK
From the text: HTP (and also low-throughput) measurements generally need to be validated by an orthogonal approach to eliminate experimental artifacts. […] In this assay, the association of the fluorescently labeled foldamer and the S100 protein of interest is monitored, through the change in polarization of the emitted light by the fluorophore upon the binding event. In direct FP, the presence of the fluorophore might change the binding affinity of some foldamers. […] Nevertheless, we assumed that the fluorophore would affect all foldamers that target the same binding site to the same degree, because the foldamer scaffold is rigid.
(§1) Briefly, S100 proteins were cloned into a modified pET15b vector with a TEV protease cleavable N-terminal His6-tag and expressed in Escherichia coli BL21 (DE3) cells, followed by Ni^2+-affinity chromatography. For HU assay, S100 proteins were further purified by either hydrophobic interaction chromatography or ion exchange chromatography without the cleavage of the N-terminal His6-tag applying standard conditions. For direct FP measurements, the N-terminal His6-tag was cleaved, and the S100 proteins were purified by hydrophobic interaction chromatography, ion exchange chromatography or size exclusion chromatography. The quality of the recombinant proteins was checked by SDS-PAGE analysis in all cases. The concentration of the recombinant S100 proteins was determined by UV spectrophotometry using the absorbance of Tyr and Trp residues.
(§2) In direct fluorescence polarization assays, S100 proteins were diluted in a buffer containing 50 nM labeled foldamer, 20 mM HEPES pH 7.5, 150 mM NaCl, 1 mM CaCl2, 0.5 mM TCEP and 0.01% Tween20. The dilution series (50 µl) were divided into three technical repeats and transferred (15 µl) to a 384-well microplate. In competitive fluorescence polarization assays, the buffer applied in direct measurements was supplemented with the S100 protein of interest to reach a saturation of 60–80%. This mixture was titrated with the competitor (i.e. the unlabeled peptide). Fluorescence polarization was measured in 8 different S100 concentrations (one of which contained no S100 protein) on a Synergy H4 plate reader using 485 ± 20 nm and 528 ± 20 nm band-pass filters for excitation and emission, respectively. The Kd values were obtained by fitting the data from the FP measurements with the python-based ProFit software using quadratic and competitive binding equation for direct and competitive FP, respectively. The detection threshold was based on two parameters. First, we rejected all fitted dissociation constants above 1 mM.

S100G = molecular target: T1, S100G (Homo sapiens, UniProt P29377); assay: direct fluorescence polarization (FP), S100G; settings: 50 nM labeled foldamer, 20 mM HEPES pH 7.5, 150 mM NaCl, 1 mM CaCl2, 0.5 mM TCEP, 0.01% Tween20, quadratic fit, mean ± SEM, three technical repeats, threshold 1 mM
T1 sequence (P29377 2-79): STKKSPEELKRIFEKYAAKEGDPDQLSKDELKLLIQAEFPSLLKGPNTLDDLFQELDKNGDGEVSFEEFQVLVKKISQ
Experimental: (§3) HTP (and also low-throughput) measurements generally need to be validated by an orthogonal approach to eliminate experimental artifacts. […] This way, we chose WL, IF, WW, YF, IL, VL, TW, RF, RR, TI, TM, and after resynthesizing with a fluorescent label at the C-terminus (Figs. S15–S26, Table S1), the S100ome was tested against the labeled foldamers by direct fluorescence polarization (FP) (Fig. 3A). In this assay, the association of the fluorescently labeled foldamer and the S100 protein of interest is monitored, through the change in polarization of the emitted light by the fluorophore upon the binding event. In direct FP, the presence of the fluorophore might change the binding affinity of some foldamers. […] Nevertheless, we assumed that the fluorophore would affect all foldamers that target the same binding site to the same degree, because the foldamer scaffold is rigid. Defining the threshold of detection at the dissociation constant of 1 mM, we identified 87 interactions between the selected foldamer fragments and the S100ome out of 220 possible interactions (Table 1, Fig. S4-14).
as §1, §2

S100A15 = molecular target: T2, S100A15 (Homo sapiens, UniProt Q86SG5); assay: direct fluorescence polarization (FP), S100A15; settings: S100A15, 50 nM labeled foldamer, 20 mM HEPES pH 7.5, 150 mM NaCl, 1 mM CaCl2, 0.5 mM TCEP, 0.01% Tween20, quadratic fit, mean ± SEM, three technical repeats, threshold 1 mM
T2 sequence (Q86SG5 1-101): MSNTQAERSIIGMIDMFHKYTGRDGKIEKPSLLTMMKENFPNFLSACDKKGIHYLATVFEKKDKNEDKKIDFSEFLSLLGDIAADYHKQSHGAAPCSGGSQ
Experimental: as §3, §1, §2

S100A16 = molecular target: T3, S100A16 (Homo sapiens, UniProt Q96FQ6); assay: direct fluorescence polarization (FP), S100A16; settings: S100A16, 50 nM labeled foldamer, 20 mM HEPES pH 7.5, 150 mM NaCl, 1 mM CaCl2, 0.5 mM TCEP, 0.01% Tween20, quadratic fit, mean ± SEM, three technical repeats, threshold 1 mM
T3 sequence (Q96FQ6 1-103): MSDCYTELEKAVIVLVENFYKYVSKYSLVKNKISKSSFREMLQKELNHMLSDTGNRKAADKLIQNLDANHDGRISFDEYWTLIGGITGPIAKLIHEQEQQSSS
Experimental: as §3, §1, §2

S100A5 = molecular target: T4, S100A5 (Homo sapiens, UniProt P33763); assay: direct fluorescence polarization (FP), S100A5; settings: for binding to S100A5 in the absence of Ca2+: Fig. 3C middle panels, direct FP in the presence of EDTA; for Kd: direct FP, S100A5, 50 nM labeled foldamer, 20 mM HEPES pH 7.5, 150 mM NaCl, 1 mM CaCl2, 0.5 mM TCEP, 0.01% Tween20, quadratic fit, mean ± SEM, three technical repeats, threshold 1 mM
T4 sequence (P33763 1-92): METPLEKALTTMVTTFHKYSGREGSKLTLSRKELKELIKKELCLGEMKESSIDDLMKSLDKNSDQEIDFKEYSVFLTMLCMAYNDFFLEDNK
Experimental: as §3
To ensure that foldamer fragments bind to the hydrophobic binding groove of S100 proteins, which opens upon binding of calcium ions, we performed FP experiments on a selected S100 protein, S100A5, in the presence of EDTA and TRTK12, an S100-binding peptide of 12 amino acids. […] Based on the similarity and redundancy among the S100 family, it can be assumed that all S100 proteins bind the members of the H14 foldamer library through their hydrophobic binding pocket in a Ca^2+-dependent manner.
as §1, §2

S100A8 = molecular target: T5, S100A8 (Homo sapiens, UniProt P05109); assay: direct fluorescence polarization (FP), S100A8; settings: S100A8, 50 nM labeled foldamer, 20 mM HEPES pH 7.5, 150 mM NaCl, 1 mM CaCl2, 0.5 mM TCEP, 0.01% Tween20, quadratic fit, mean ± SEM, three technical repeats, threshold 1 mM
T5 sequence (P05109 1-93): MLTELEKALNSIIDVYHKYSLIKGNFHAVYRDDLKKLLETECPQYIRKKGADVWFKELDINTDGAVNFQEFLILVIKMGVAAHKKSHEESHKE
Experimental: as §3, §1, §2

Row | Kd (S100A4) | Kd (S100G) | Kd (S100A15) | Kd (S100A16) | Kd (S100A5) | Kd (S100A8) | Compound | binding to S100A5 in the absence of Ca2+ (S100A5)
1 | 460 ± 23 µM | > 1000 µM | > 1000 µM | > 1000 µM | 46 ± 1.2 µM | > 1000 µM | N=C(N)NCCC[C@@H](CC(=O)N[C@H]1CCCC[C@@H]1C(=O)N[C@H]1CCCC[C@@H]1C(=O)N[C@H](CC(=O)N[C@H]1CCCC[C@@H]1C(=O)NCC(=O)N[C@@H](CCCCNC(=O)c1ccc2c(c1)C1(OC2=O)c2ccc(O)cc2Oc2cc(O)ccc21)C(N)=O)Cc1ccccc1)NC(=O)[C@H]1CCCC[C@@H]1N [fRF] | –
2 | 180 ± 46 µM | > 1000 µM | > 1000 µM | > 1000 µM | 62 ± 1.4 µM | 770 ± 180 µM | C[C@@H](O)[C@@H](CC(=O)N[C@H]1CCCC[C@@H]1C(=O)N[C@H]1CCCC[C@@H]1C(=O)N[C@H](CC(=O)N[C@H]1CCCC[C@@H]1C(=O)NCC(=O)N[C@@H](CCCCNC(=O)c1ccc2c(c1)C1(OC2=O)c2ccc(O)cc2Oc2cc(O)ccc21)C(N)=O)Cc1c[nH]c2ccccc12)NC(=O)[C@H]1CCCC[C@@H]1N [fTW] | –
3 | > 1000 µM | > 1000 µM | > 1000 µM | > 1000 µM | 204 ± 9.2 µM | > 1000 µM | CSCC[C@@H](CC(=O)N[C@H]1CCCC[C@@H]1C(=O)NCC(=O)N[C@@H](CCCCNC(=O)c1ccc2c(c1)C1(OC2=O)c2ccc(O)cc2Oc2cc(O)ccc21)C(N)=O)NC(=O)[C@H]1CCCC[C@@H]1NC(=O)[C@H]1CCCC[C@@H]1NC(=O)C[C@@H](NC(=O)[C@H]1CCCC[C@@H]1N)[C@@H](C)O [fTM] | –
4 | 150 ± 4.8 µM | > 1000 µM | > 1000 µM | > 1000 µM | 75 ± 3.6 µM | > 1000 µM | CC[C@H](C)[C@@H](CC(=O)N[C@H]1CCCC[C@@H]1C(=O)N[C@H]1CCCC[C@@H]1C(=O)N[C@H](CC(=O)N[C@H]1CCCC[C@@H]1C(=O)NCC(=O)N[C@@H](CCCCNC(=O)c1ccc2c(c1)C1(OC2=O)c2ccc(O)cc2Oc2cc(O)ccc21)C(N)=O)CC(C)C)NC(=O)[C@H]1CCCC[C@@H]1N [fIL] | –
5 | > 1000 µM | > 1000 µM | > 1000 µM | > 1000 µM | 45 ± 0.81 µM | > 1000 µM | N=C(N)NCCC[C@@H](CC(=O)N[C@H]1CCCC[C@@H]1C(=O)NCC(=O)N[C@@H](CCCCNC(=O)c1ccc2c(c1)C1(OC2=O)c2ccc(O)cc2Oc2cc(O)ccc21)C(N)=O)NC(=O)[C@H]1CCCC[C@@H]1NC(=O)[C@H]1CCCC[C@@H]1NC(=O)C[C@H](CCCNC(=N)N)NC(=O)[C@H]1CCCC[C@@H]1N [fRR] | –
6 | 210 ± 8.7 µM | > 1000 µM | > 1000 µM | > 1000 µM | 110 ± 5.4 µM | > 1000 µM | CC(C)C[C@@H](CC(=O)N[C@H]1CCCC[C@@H]1C(=O)NCC(=O)N[C@@H](CCCCNC(=O)c1ccc2c(c1)C1(OC2=O)c2ccc(O)cc2Oc2cc(O)ccc21)C(N)=O)NC(=O)[C@H]1CCCC[C@@H]1NC(=O)[C@H]1CCCC[C@@H]1NC(=O)C[C@@H](NC(=O)[C@H]1CCCC[C@@H]1N)C(C)C [fVL] | –

Second part, the compound before the results:

Row | Compound | Kd (S100A4) | Kd (S100G) | Kd (S100A15) | Kd (S100A16) | Kd (S100A5) | Kd (S100A8) | binding to S100A5 in the absence of Ca2+ (S100A5)
7 | CC(C)C[C@@H](CC(=O)N[C@H]1CCCC[C@@H]1C(=O)NCC(=O)N[C@@H](CCCCNC(=O)c1ccc2c(c1)C1(OC2=O)c2ccc(O)cc2Oc2cc(O)ccc21)C(N)=O)NC(=O)[C@H]1CCCC[C@@H]1NC(=O)[C@H]1CCCC[C@@H]1NC(=O)C[C@H](Cc1c[nH]c2ccccc12)NC(=O)[C@H]1CCCC[C@@H]1N [fWL] | 46 ± 1.6 µM | > 1000 µM | 39 ± 2.4 µM | 304 ± 131 µM | 14 ± 0.55 µM | 74 ± 3.5 µM | loss of binding event; also recorded: unable to interact
8 | NC(=O)[C@H](CCCCNC(=O)c1ccc2c(c1)C1(OC2=O)c2ccc(O)cc2Oc2cc(O)ccc21)NC(=O)CNC(=O)[C@H]1CCCC[C@@H]1NC(=O)C[C@H](Cc1c[nH]c2ccccc12)NC(=O)[C@H]1CCCC[C@@H]1NC(=O)[C@H]1CCCC[C@@H]1NC(=O)C[C@H](Cc1c[nH]c2ccccc12)NC(=O)[C@H]1CCCC[C@@H]1N [fWW] | – | > 1000 µM | > 1000 µM | > 1000 µM | 77 ± 2.8 µM | > 1000 µM | –
9 | CC[C@H](C)[C@@H](CC(=O)N[C@H]1CCCC[C@@H]1C(=O)NCC(=O)N[C@@H](CCCCNC(=O)c1ccc2c(c1)C1(OC2=O)c2ccc(O)cc2Oc2cc(O)ccc21)C(N)=O)NC(=O)[C@H]1CCCC[C@@H]1NC(=O)[C@H]1CCCC[C@@H]1NC(=O)C[C@@H](NC(=O)[C@H]1CCCC[C@@H]1N)[C@@H](C)O [fTI] | > 1000 µM | > 1000 µM | > 1000 µM | > 1000 µM | 270 ± 14 µM | > 1000 µM | –
10 | CC[C@H](C)[C@@H](CC(=O)N[C@H]1CCCC[C@@H]1C(=O)N[C@H]1CCCC[C@@H]1C(=O)N[C@H](CC(=O)N[C@H]1CCCC[C@@H]1C(=O)NCC(=O)N[C@@H](CCCCNC(=O)c1ccc2c(c1)C1(OC2=O)c2ccc(O)cc2Oc2cc(O)ccc21)C(N)=O)Cc1ccccc1)NC(=O)[C@H]1CCCC[C@@H]1N [fIF] | 93 ± 2.4 µM | > 1000 µM | > 1000 µM | > 1000 µM | 27 ± 0.53 µM | 750 ± 46 µM | loss of binding event; also recorded: unable to interact
11 | NC(=O)[C@H](CCCCNC(=O)c1ccc2c(c1)C1(OC2=O)c2ccc(O)cc2Oc2cc(O)ccc21)NC(=O)CNC(=O)[C@H]1CCCC[C@@H]1NC(=O)C[C@H](Cc1ccccc1)NC(=O)[C@H]1CCCC[C@@H]1NC(=O)[C@H]1CCCC[C@@H]1NC(=O)C[C@H](Cc1ccc(O)cc1)NC(=O)[C@H]1CCCC[C@@H]1N [fYF] | 113 ± 5.2 µM | > 1000 µM | > 1000 µM | > 1000 µM | 32 ± 1 µM | 180 ± 42 µM | –
